Measurements reported in patent US10519113B2, “Kinase inhibitor compounds, compositions, and methods of treating cancer” (ICAHN SCHOOL OF MEDICINE AT MOUNT SINAI, priority 2016, dated 2019).
Entries after “also recorded” stand apart in the source; their conditions may differ.

Experiments:
ptc>dRet^M955T flies [1] = test: fly rough eye phenotype; conditions: APS6-45 100 μM, AD80 100 μM
ptc>dRet^M955T flies [2] = test: rescue-from-lethality assay in ptc>dRet^M955T flies (drug screening); format: in vivo, Drosophila; conditions: drug in fly food, 25° C.
human BRAF = target: T1, human BRAF (Homo sapiens, UniProt P15056); test: Kd measurement (KINOMEscan bead based competition assay), BRAF; conditions: in vitro binding assay
T1 construct: phage display fusion (kinase expressed on phage); purchased DiscoverX (KINOMEscan service); host or cells: phage
T1 sequence (P15056 whole entry, the tested form may be a part): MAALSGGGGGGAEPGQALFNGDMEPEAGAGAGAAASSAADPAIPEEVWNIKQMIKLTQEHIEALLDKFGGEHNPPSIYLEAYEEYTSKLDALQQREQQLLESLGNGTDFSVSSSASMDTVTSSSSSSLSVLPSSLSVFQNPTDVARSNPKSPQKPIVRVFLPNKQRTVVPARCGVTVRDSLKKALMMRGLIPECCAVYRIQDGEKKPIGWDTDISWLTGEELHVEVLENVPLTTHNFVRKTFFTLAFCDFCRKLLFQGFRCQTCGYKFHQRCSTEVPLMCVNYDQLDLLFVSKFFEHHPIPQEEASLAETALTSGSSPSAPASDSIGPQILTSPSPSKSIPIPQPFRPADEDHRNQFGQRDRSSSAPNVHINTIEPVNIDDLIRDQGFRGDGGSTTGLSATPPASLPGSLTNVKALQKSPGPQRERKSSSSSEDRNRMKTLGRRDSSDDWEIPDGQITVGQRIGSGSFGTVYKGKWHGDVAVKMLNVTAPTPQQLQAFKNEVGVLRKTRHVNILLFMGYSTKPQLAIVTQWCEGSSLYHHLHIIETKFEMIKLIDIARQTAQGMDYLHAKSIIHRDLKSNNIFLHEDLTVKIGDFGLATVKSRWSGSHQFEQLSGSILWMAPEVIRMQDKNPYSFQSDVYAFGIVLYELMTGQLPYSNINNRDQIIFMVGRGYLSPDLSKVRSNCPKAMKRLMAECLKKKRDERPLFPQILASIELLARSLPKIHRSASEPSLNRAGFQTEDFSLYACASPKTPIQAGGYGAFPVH
Procedure: Kd values were determined by DiscoverX using a bead based competition assay (KINOMEscan). In brief, kinases were expressed on phage and immobilized on beads via active site-directed ligands. Test compounds were premixed with kinases and assayed for the ability to compete for immobilized ligands. Binding constants were calculated with a standard dose-response curve and the Hill equation, with Hill slope set to −1. […] Kd values and s.e.m. are the average of two biological replicates.

human RET = target: T2, human RET (Homo sapiens, UniProt P07949); test: Kd measurement (KINOMEscan bead based competition assay), RET; format: binding; conditions: cell-free in vitro
T2 construct: phage display fusion (kinase expressed on phage); purchased DiscoverX (KINOMEscan service); host or cells: phage
T2 sequence (P07949 29-1114): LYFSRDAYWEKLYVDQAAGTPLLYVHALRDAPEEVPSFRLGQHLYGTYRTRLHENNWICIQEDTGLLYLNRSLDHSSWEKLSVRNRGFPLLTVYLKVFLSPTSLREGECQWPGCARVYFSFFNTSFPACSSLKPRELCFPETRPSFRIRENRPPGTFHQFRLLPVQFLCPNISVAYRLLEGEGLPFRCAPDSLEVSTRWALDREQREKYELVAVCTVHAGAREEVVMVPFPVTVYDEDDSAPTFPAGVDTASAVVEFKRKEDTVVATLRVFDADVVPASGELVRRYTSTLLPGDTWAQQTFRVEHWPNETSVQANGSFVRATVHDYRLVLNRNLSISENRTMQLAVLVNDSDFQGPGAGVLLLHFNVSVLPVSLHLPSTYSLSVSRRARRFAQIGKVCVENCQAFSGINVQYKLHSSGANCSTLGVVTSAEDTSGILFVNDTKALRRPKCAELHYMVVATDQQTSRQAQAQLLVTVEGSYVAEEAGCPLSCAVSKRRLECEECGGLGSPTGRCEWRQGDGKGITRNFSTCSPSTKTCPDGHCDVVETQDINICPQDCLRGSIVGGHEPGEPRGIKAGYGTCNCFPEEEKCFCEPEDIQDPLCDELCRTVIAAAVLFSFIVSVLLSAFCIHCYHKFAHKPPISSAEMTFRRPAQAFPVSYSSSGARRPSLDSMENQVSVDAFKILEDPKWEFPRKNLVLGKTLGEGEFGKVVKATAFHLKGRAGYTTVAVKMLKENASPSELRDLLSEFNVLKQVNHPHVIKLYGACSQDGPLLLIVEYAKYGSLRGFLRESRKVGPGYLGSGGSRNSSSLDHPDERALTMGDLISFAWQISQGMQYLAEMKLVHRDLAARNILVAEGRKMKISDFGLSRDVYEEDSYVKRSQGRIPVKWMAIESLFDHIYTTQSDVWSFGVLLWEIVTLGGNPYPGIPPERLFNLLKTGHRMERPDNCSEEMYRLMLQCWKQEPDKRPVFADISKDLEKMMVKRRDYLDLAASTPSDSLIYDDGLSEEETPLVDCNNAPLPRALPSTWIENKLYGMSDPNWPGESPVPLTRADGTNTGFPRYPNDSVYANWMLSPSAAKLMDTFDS
Procedure: (§1) Kd values were determined by DiscoverX using a bead based competition assay (KINOMEscan). In brief, kinases were expressed on phage and immobilized on beads via active site-directed ligands. Test compounds were premixed with kinases and assayed for the ability to compete for immobilized ligands. Binding constants were calculated with a standard dose-response curve and the Hill equation, with Hill slope set to −1. […] For each sorafelog-kinase pair, an 11-point series ranging from 30,000 to 0.5 nM, in 3-fold dilutions, were used to derive Kd values. Kd values and s.e.m. are the average of two biological replicates.

MKNK1 = target: T3, MKNK1 (Homo sapiens, UniProt Q9BUB5); test: Kd measurement (KINOMEscan bead based competition assay), MKNK1; format: binding; conditions: in vitro
T3 construct: phage display fusion (kinase expressed on phage); purchased DiscoverX (KINOMEscan service); host or cells: phage
T3 sequence (Q9BUB5 whole entry, the tested form may be a part): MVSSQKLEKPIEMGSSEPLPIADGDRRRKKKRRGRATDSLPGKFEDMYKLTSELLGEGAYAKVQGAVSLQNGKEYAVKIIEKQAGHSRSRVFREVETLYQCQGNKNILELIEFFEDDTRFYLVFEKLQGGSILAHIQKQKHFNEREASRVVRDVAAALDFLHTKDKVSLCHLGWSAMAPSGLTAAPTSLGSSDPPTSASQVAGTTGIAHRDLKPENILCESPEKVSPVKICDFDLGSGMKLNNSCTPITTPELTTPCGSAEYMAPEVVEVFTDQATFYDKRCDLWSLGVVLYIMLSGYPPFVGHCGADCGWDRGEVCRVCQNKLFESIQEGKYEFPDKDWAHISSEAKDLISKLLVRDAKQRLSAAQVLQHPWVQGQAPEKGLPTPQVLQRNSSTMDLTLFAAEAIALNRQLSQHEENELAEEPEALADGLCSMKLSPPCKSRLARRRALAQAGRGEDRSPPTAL
Procedure: as §1

TT human MTC cells = test: soft agar colony formation assay; format: cell-based; conditions: colonies at three weeks
Excerpt: Imaged with ×40. […] Error bars, standard errors in triplicate.

765>dRet^M955T flies = test: wing venation assay in adult flies; conditions: for ectopic wing venation in 765>dRet^M955T flies: doses tested
Excerpt: More than 15 adult wings were scored for abnormal wing venation.

[3] = tested on: dRet^M955T-expressing wing cells; test: in vivo cell migration assay in developing wing discs; conditions: for effect of reduced Lk6 on suppression of cell migration by compound: 765>dRet^M955T; for ptc>dRet^M955T-mediated EMT and cell migration/invasion: wing discs of ptc>dRet^M955T larvae
Excerpt: For in vivo cell migration assays, third-instar larvae were dissected to collect developing wing discs. After fixation with 4% paraformaldehyde in PBS, discs were whole-mounted and observed for dRet^M955T-expressing cells labeled with GFP under a confocal microscope. At least 20 wing discs were studied for each genotype or treatment. Phospho-Src was stained with anti-Src(pY418) antibody (Invitrogen).
In addition to directing late lethality, the ptc>dRet^M955T transgenes targeted dRet^M955T expression to a stripe of cells at the midline of the developing wing disc epithelium; cells were visualized with an included UAS-GFP transgene.

ptc>dRet^M955T flies [4] = test: kinome genetic modifier screening of ptc>dRet^M955T flies in the presence of drug; format: in vivo, Drosophila
EPH = test: kinase percent inhibition measurement, EPH; format: biochemical, human; conditions: cell-free kinase inhibition assay, compounds screened at 1 μM
Procedure: (§2) The sorafelogs were assayed against a panel of purified human kinases (ThermoFisher) to measure percentage inhibition values and derive kinome profiles (FIG. 61). All compounds were screened at 1 μM, using two biological replicates to determine percent inhibition values. Detailed procedures for kinase reactions and assay formats are described at www.thermofisher.com/kinaseprofiling.

FRK = target: T4, FRK (Homo sapiens, UniProt P42685); test: kinase percent inhibition measurement, FRK; format: biochemical; conditions: cell-free kinase inhibition assay, compounds screened at 1 μM
T4 construct: purchased ThermoFisher
T4 sequence (P42685 whole entry): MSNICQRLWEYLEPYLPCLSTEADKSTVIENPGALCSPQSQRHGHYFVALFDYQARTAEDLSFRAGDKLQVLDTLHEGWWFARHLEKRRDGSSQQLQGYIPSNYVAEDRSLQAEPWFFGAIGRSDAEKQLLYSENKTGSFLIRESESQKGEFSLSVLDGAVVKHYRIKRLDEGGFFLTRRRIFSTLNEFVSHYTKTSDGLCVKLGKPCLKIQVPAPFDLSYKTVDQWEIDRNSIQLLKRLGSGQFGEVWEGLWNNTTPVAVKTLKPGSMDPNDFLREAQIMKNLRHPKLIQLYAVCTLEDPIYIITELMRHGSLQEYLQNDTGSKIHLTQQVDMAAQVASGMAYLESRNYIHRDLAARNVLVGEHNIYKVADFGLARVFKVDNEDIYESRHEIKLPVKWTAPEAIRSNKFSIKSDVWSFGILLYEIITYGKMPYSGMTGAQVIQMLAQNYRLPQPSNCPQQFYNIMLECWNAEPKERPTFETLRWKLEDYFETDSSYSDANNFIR
Procedure: as §2

non-oncogenic w^- flies = test: whole-body toxicity in control, non-transformed flies; format: in vivo, Drosophila; conditions: fed to control
RET(M918T) = target: T5, RET(M918T) (Homo sapiens, UniProt P07949, M918T); test: Kd measurement (KINOMEscan bead based competition assay), RET(M918T); format: binding; conditions: in vitro
T5 construct: phage display fusion (kinase expressed on phage); purchased DiscoverX (KINOMEscan service); host or cells: phage
T5 sequence (P07949 29-1114 M918T): as the sequence (P07949 29-1114) above, with M890T counted along it
Procedure: as §1

TT cell tumors = test: TT cell xenograft assay in nude mice; format: in vivo, mouse; conditions: 10 mg/kg/day p.o.
Procedure: FIGS. 66C-E illustrate the effectiveness of the oral administration of APS6-45 to mice with xenografts. […] Dosing (10 mg/kg/day each) was started on day 0 after establishing TT cell tumors (˜120 mm^3) subcutaneously in nude mice. Error bars, standard errors (n=10). Cabo, cabozantinib; soraf, sorafenib. […] FIG. 66D and FIG. 67 illustrate Waterfall plots showing percent changes in tumor volume on day 30 relative to pretreatment baselines. Each bar represents a single animal. […] Asterisk, complete response. Two mice were lost during the course of the experiment due to unknown causes. Administration of APS6-45 had no effect on mouse body weight as illustrated in FIG. 66E (same legend as FIG. 66C).
Xenograft assays were also performed by Washington Biotechnology. 40 female nude mice (5-6 weeks) were implanted subcutaneously with TT cells. […]

toleration assay in mice = format: in vivo, mouse; conditions: female athymic nude mice, oral doses escalated from 0.1 up to 160 mg/kg/day
Procedure: Toleration assays for APS6-45 were performed by Washington Biotechnology (Baltimore, Md.). Briefly, five female athymic nude mice (5-6 weeks) were administered with increasing oral doses of APS6-45 starting at 0.1 mg/kg/day and observed for 2 days for signs of clinical distress such as weight loss, discharges, and morbidity.

[5] = pharmacokinetics assay in mice (clinical signs); format: in vivo, mouse; conditions: male ICR mice, 20 mg/kg orally
Procedure: Phamacokinetics assays for APS6-45 were performed by Medicilon Preclinical Research (Shanghai, China). 20 mg/kg of APS6-45 was dosed orally to male ICR mice (5-6 weeks of age), and its plasma concentrations were determined at 0.25, 0.5, 1, 2, 4, 8, 10, and 24 hours post dosing.

## CC(C)n1nc(-c2ccc(NC(=O)Nc3cc(C(F)(F)F)ccc3F)cc2)c2c(N)ncnc21 [AD80, reference compound]
ptc>dRet^M955T flies [1]
  rough eye phenotype: did not

## CNC(=O)c1cc(Oc2ccc(NC(=O)Nc3cc(C(F)(F)C(F)(F)F)ccc3F)cc2)ccn1 [APS5-16-2, 4-(4-(3-(2-Fluoro-5-(perfluoroethyl)phenyl)ureido)phenoxy)-N-methylpicolinamide]
ptc>dRet^M955T flies [2]
  rescue of ptc>dRet^M955T viability, in words: significant rescue; also recorded: strongly increased overall ptc>dRet^M955T survival beyond LS1-15
Human BRAF
  BRAF binding, in words: significantly reduced BRAF binding
Human RET
  RET binding / inhibition, in words: retaining RET inhibition
MKNK1
  MKNK1 binding, in words: significantly reduced MKNK1 binding
TT human MTC cells
  MTC colony formation: Suppression of MTC colony formation
765>dRet^M955T flies
  ectopic wing venation in 765>dRet^M955T flies: exclusively suppressed wing venation; also recorded: failed to promote ectopic wing venation
[3]
  effect of reduced Lk6 on suppression of cell migration by compound: not affected

## CNC(=O)c1cc(Oc2ccc(NC(=O)Nc3cc(C(F)F)ccc3F)cc2)ccn1 [APS4-54, 4-(4-(3-(5-(Difluoromethyl)-2-fluorophenyl)ureido)phenoxy)-N-methylpicolinamide]
ptc>dRet^M955T flies [2]
  rescue of ptc>dRet^M955T viability, in words: poor whole animal activity relative to LS1-15; also recorded: reduced rescue

## CNC(=O)c1cc(Oc2ccc(NC(=O)Nc3cc(C(F)(F)F)ccc3F)cc2)ccn1 [LS1-15, 4-(4-(3-(2-Fluoro-5-(trifluoromethyl)phenyl)ureido)phenoxy)-N-methylpicolinamide]
ptc>dRet^M955T flies [2]
  rescue of ptc>dRet^M955T viability, in words: rescued viability significantly better than sorafenib; also recorded: most effective in rescuing lethality
ptc>dRet^M955T flies [4]; 23° C.
  viability of drug-treated ptc>dRet^M955T flies (kinase-proficient control): ~50%
ptc>dRet^M955T flies [4]; one active allele of Lk6 removed, in the presence of drug
  survival to adulthood of ptc>dRet^M955T, Lk6^−/+ flies: 0%
ptc>dRet^M955T flies [4]; phl (Raf ortholog) heterozygous, in the presence of drug
  viability of ptc>dRet^M955T, phl^−/+ flies: 96%
Human BRAF
  BRAF binding, in words: significant binding
EPH
  inhibition of EPH kinase activity: inhibit
FRK
  inhibition of FRK kinase activity: inhibit
765>dRet^M955T flies; higher concentrations / high doses that rescue ptc>dRet^M955T viability
  wing venation at higher concentrations: suppressed venation; also recorded: did not promote ectopic wing venation
765>dRet^M955T flies; low dose (10 μM)
  wing venation at low dose: enhanced venation; also recorded: stimulated significant excess wing vein material
[3]
  effect of reduced Lk6 on suppression of cell migration by compound: reversed suppression
  ptc>dRet^M955T-mediated EMT and cell migration/invasion: strongly suppressed

## CNC(=O)c1cc(Oc2ccc(NC(=O)c3ccc(Cl)c(C(F)(F)F)c3)cc2)ccn1 [LS1-37, 4-(4-(4-Chloro-3-(trifluoromethyl)benzamido)phenoxy)-N-methylpicolinamide]
non-oncogenic w^- flies
  whole body toxicity: toxic
[3]
  ptc>dRet^M955T-mediated EMT and cell migration/invasion: worsened cell migration

## CNC(=O)c1cc(Oc2ccc(NC(=O)Nc3cc(C(F)(C(F)(F)F)C(F)(F)F)ccc3F)cc2)ccn1 [APS6-45, 4-(4-(3-(2-Fluoro-5-(perfluoropropan-2-yl)phenyl)ureido)phenoxy)-N-methylpicolinamide]
ptc>dRet^M955T flies [2]
  rescue of ptc>dRet^M955T viability, in words: strongest efficacy; also recorded: strongly increased overall ptc>dRet^M955T survival beyond LS1-15
ptc>dRet^M955T flies [2]; optimal doses
  rescue of ptc>dRet^M955T flies (rescued adults / total pupae, viability): 84%
Human BRAF
  BRAF binding, in words: significantly reduced BRAF binding
Human RET
  RET binding / inhibition, in words: retaining RET inhibition; also recorded: lower activity; also recorded: weakest RET binding
RET(M918T)
  activity against oncogenic RET, in words: lower activity
MKNK1
  MKNK1 binding, in words: only a small decrease
TT human MTC cells
  MTC colony formation: Suppression of MTC colony formation
TT cell tumors
  TT cell tumor growth in nude mice: Suppression of TT cell growth in vivo
TT cell tumors; xenograft study
  mouse body weight: no effect
Toleration assay in mice
  signs of clinical distress (weight loss, discharges, morbidity): no such signs were observed
[5]
  treatment-related clinical signs: No treatment-related clinical signs were observed
ptc>dRet^M955T flies [1]
  rough eye phenotype: strongly suppressed; also recorded: strongly rescued the rough eye phenotype
765>dRet^M955T flies
  ectopic wing venation in 765>dRet^M955T flies: exclusively suppressed wing venation; also recorded: failed to promote ectopic wing venation
[3]
  effect of reduced Lk6 on suppression of cell migration by compound: not affected

## CNC(=O)c1cc(Oc2ccc(NC(=O)Nc3cc(C(F)(F)F)ccc3F)c(F)c2)ccn1 [APS3-69-1, 4-(3-Fluoro-4-(3-(2-fluoro-5-(trifluoromethyl)phenyl)ureido)phenoxy)-N-methylpicolinamide]
[3]
  ptc>dRet^M955T-mediated EMT and cell migration/invasion: strongly suppressed

## CNC(=O)c1cc(Oc2ccc(NC(=O)Nc3cccc(C(F)(F)F)c3)cc2)ccn1 [LS1-11-2, N-Methyl-4-(4-(3-(3-(trifluoromethyl)phenyl)ureido)phenoxy)picolinamide]
ptc>dRet^M955T flies [2]
  rescue of ptc>dRet^M955T viability, in words: reduced survival

## CNC(=O)c1cc(Oc2ccc(NC(=O)Nc3ccc(Cl)c(C(F)(F)F)c3)c(F)c2)ccn1 [regorafenib, 4-(4-(3-(4-Chloro-3-(trifluoromethyl)phenyl)ureido)-3-fluorophenoxy)-N-methylpicolinamide, reference compound]
ptc>dRet^M955T flies [2]
  rescue of ptc>dRet^M955T viability, in words: weak efficacy

## CNC(=O)c1cc(Oc2ccc(NC(=O)Nc3cc(C)ccc3F)cc2)ccn1 [APS4-35-1, 4-(4-(3-(2-Fluoro-5-methylphenyl)ureido)phenoxy)-N-methylpicolinamide]
ptc>dRet^M955T flies [2]
  rescue of ptc>dRet^M955T viability, in words: poor whole animal activity relative to LS1-15; also recorded: reduced rescue
